Test results reported in PMC11555231 (Nature Communications, 2024).
Bridge positions count the residues as written; N and C are the ends. Square brackets hold non-standard residues; d marks the D form. Peptide text beside a SMILES is read from it.

Experiments:
hPADI4-stable mES cells = experiment: High content microscopy of citrullinated histone H3 (H3Cit) in hPADI4-stable mES cells; format: cell-based, mouse; settings: mean H3Cit intensity, KSR/2i 3 h, range of peptide concentrations
Experimental: HaLo-GFP-mito HeLa cells were grown in DMEM (Gibco) supplemented with 10% foetal bovine serum (FBS), penicillin/streptomycin (100 µg/ml) and puromycin (1 µg/ml) at 37 °C, 5% CO2. HaLo-GFP-mito HeLa cell line[82] was profiled by short tandem repeat analysis (STR) and tested negative for mycoplasma by the Cell Services Technology Platform at the Francis Crick Institute. E14 –mouse embryonic stem cells (Cambridge Stem Cell Institute, UK) were cultured in plates coated with 1% gelatine in GMEM supplemented with 10% foetal calf serum (FCS) batch-tested for ES cell culture (Gibco), 0.1 mM non-essential amino acids, 2 mM L-glutamine, 1 mM sodium pyruvate, 0.1 mM β-mercaptoethanol and 50 ng/mL leukaemia inhibitory factor (LIF) (ESGRO, Millipore). For PADI4 activation, cells were cultured in GMEM containing 10% knockout serum replacement (KSR, Life Technologies), 1% FCS batch-tested for ES cell culture (Gibco), 0.1 mM non-essential amino acids, L-glutamine, 1 mM sodium pyruvate, 0.1 mM β-mercaptoethanol, 50 ng/mL LIF (ESGRO, Millipore), 1 μM PD0325901 (AxonMedChem) and 3 μM CHIR99021 (AxonMedChem). For the generation of E14 mES stably expressing human PADI4 (hPADI4-stable), human PADI4 cDNA was inserted into ES E14 cells using the piggyBac transposon system. The Gateway system was used to clone human PADI4 into the piggyBac vector using primers PADI4_AttB1_F and PADI4_AttB2_R (Table S4). pPB-CAG-CTRL (empty vector) or pPB-CAG-hPADI4 vectors […] were transfected with the piggyBac transposase (pPBase) expression vector, pCAGPBase […], by lipofection according to the manufacturer’s instructions (Lipofectamine 2000, Invitrogen). E14 cells constitutively expressing the hygromycin resistance gene and human PADI4 were selected and expanded in media containing […] hygromycin.
E14 cells were seeded onto 96-well PerkinElmer cell carrier ultra plates (Phenoplates) coated with 0.1% gelatine, at 25,000 cells per well and grown overnight at 37 °C, 5% CO2. Outer wells were excluded but medium was added to minimise any edge effects. […]

human neutrophils = experiment: Ca-ionophore stimulated neutrophils, citrullinated H3 immunostaining and confocal microscopy / immunoblot; format: cell-based; settings: 50 µM peptide, pre-incubated 60 min, 5 µM Ca-Ionophore
Experimental: Peripheral venous blood was isolated from consenting healthy adult volunteers in heparin tubes as previously described. Briefly, blood samples were on Histopaque 1119 (Sigma-Aldrich) and then centrifuged for 20 min at 800 × g. The plasma was collected and centrifuged for a second time for 20 min at 800 × g. The neutrophil layer was collected and washed in Hyclone Hank’s Balanced Salt Solution (HBSS) -Ca, -Mg, -Phenol red (GE Healthcare) supplemented with 10 mM HEPES (Invitrogen) 0.1% FBS and further purified with a discontinuous Percoll (GE Healthcare) gradient consisting of layers with densities of 85, 80, 75, 70 and 65% and centrifuged for 20 min at 800 × g. Neutrophil-enriched layers were then collected and washed, and neutrophil purity was assessed using flow cytometry.
About 5 × 10^4 sorted neutrophils were seeded in 24-well cell culture plates containing glass coverslips in HyClone HBSS +Ca, +Mg, - Phenol red (GE Healthcare) supplemented with 10 mM HEPES (Invitrogen). Neutrophils were stimulated with 5 µM Ca-Ionophore (Sigma) and fixed for 20 min at room temperature with 2% paraformaldehyde at RT. Cells were then washed and permeabilized with 0.5% Triton X-100 in PBS. Non-specific binding was blocked with 2% BSA (Sigma) and 2% donkey serum (Sigma) in PBS. Samples were stained with DAPI (Life Technologies), the rabbit anti-CitH3 (Abcam; ab5103 1:500) and donkey anti-rabbit alexa488 (Invitrogen; A21206). Fluorescence imaging was performed on a Leica TCS SP8 inverted confocal microscope using sequential scan in between frames mode with a 20x objective.
Neutrophil samples were boiled in a sodium dodecyl sulphate (SDS) buffer containing dithiothreitol (DTT) and run on a polyacrylamide gel electrophoresis (SDS-PAGE) using Criterion TGX precast gels (Any-KD; Bio-Rad Laboratories). Proteins were then transferred to a PVDF membrane (Bio-Rad Laboratories) via semi-dry transfer. The membrane was blocked with 5% BSA (Fisher Scientific) in Tris-buffered saline with 0.1% Tween-20 (TBS-T). Levels of citrullinated histone H3, total H3 and myeloperoxidase (MPO) were assessed by incubating membranes in either anti-histone H3 citrulline R2 + R8 + R17 (Abcam; ab5103 1:1000), anti-histone H3 (Millipore; 07-690 1:10000) or anti-MPO (DAKO; A0398 1:2500) overnight at 4 °C, respectively. For cell lysate-based assays and pull-down assays, membranes were incubated as above with anti-hPADI4 (Abcam; ab50332; 1:1000 in 5% BSA/TBS-T), anti-Bcr (Cell Signalling #3902S; 1:1000 in 3% milk/TBS-T) and anti-Impdh2 (Cell Signalling #57068S; 1:1000 in 3% milk/TBS-T). Membranes were washed in 0.1% TBS-T and subsequently incubated with goat anti-rabbit HRP or anti-goat (Fisher Scientific) for 1 h, followed by final washes in 0.1% TBS-T. Membranes were imaged with enhanced chemiluminescent substrate (ECL) (Thermo Fisher) on a Bio-Rad imager.

SMILES: N=C(N)NCCC[C@@H]1NC(=O)[C@H](CC(=O)O)NC(=O)[C@@H](Cc2ccc(O)cc2)NC(=O)CSC[C@@H](C(=O)NCC(N)=O)NC(=O)[C@H](Cc2ccc(O)cc2)NC(=O)[C@H](CCCCN)NC(=O)[C@@H]2CCCN2C(=O)[C@H](Cc2c[nH]cn2)NC(=O)[C@H](CCCNC(=N)N)NC(=O)[C@H](Cc2ccc(O)cc2)NC(=O)[C@H](Cc2c[nH]cn2)NC(=O)[C@H](Cc2c[nH]cn2)NC1=O [PADI4_3i] ({CH2CO}-[dY]DRHHYRHPKYCG-NH2; thioether N-12)
- inhibition of intracellular PADI4 (in words) (hPADI4-stable mES cells): no inhibition
- H3Cit levels in neutrophils treated with calcium ionophore (human neutrophils): neither response was affected
